In the test the test system is Streptococcus agalactiae. As to the kind of experiment: Antibiotic assay (resazurin, Example 1), Streptococcus agalactiae. The note with it: for activity against Streptococcus agalactiae strain 14150: in words. The test is classed as cell-based. Here is the method: Bacteria Strain. […] The MRSA were obtained as further described below.
Antibiotic agents. Cyprofloxacin and erythromycin were provided by Sigma-Aldrich. Gentamicin sulfate and vancomycin hydrochloride were provided by Calbiochem.
Five additional strains were tested: Streptococcus pneumoniae, Streptococcus agalactiae, Streptococcus pyogenes, Enterococcus faecalis and Corynebacterium jeikeium.

[1] abbreviates: Strep. agalactiae 14150, read-out: IC50.
Setting [2] is: Strep. agalactiae 14151, read-out: IC50.
Where [3] appears, read: Strep. agalactiae 14153, read-out: IC50.

Counter-ions that a name gives are not always drawn. Like-named read-outs stand apart in the source and are kept apart here.

One may read the IC50 as the concentration at which inhibition is half-maximal.

`O=C(O)c1cn(C2CC2)c2cc(N3CCNCC3)c(F)cc2c1=O` [Ciprofloxacin, reference compound]: the “Minimum Inhibitory Concentration (MIC)” value (Strep. agalactiae 14151) is reported as “(>200) μM” and the “Minimum Inhibitory Concentration (MIC)” value (Strep. agalactiae 14153) is reported as “(>200) μM”. The IC50 by setting is: (Streptococcus agalactiae, Strep. agalactiae 14150, read-out: IC50) 138 ± 10 µM; (Streptococcus agalactiae, Strep. agalactiae 14151, read-out: IC50) more than 200 µM; (Streptococcus agalactiae, Strep. agalactiae 14153, read-out: IC50) 190 ± 10 µM. The MIC (Streptococcus agalactiae, Strep. agalactiae 14150, read-out: Minimum Inhibitory Concentration (MIC)) was more than 200 µM.

With `O=C(CCc1ccccc1)c1c(O)cc(O)c(C/C=C/c2ccc(O)cc2)c1O` [Compound III], the “activity against Streptococcus agalactiae strain 14150” value (shortened to “activity”) is on record as “active”. For the setting “Strep. agalactiae 14150”, the “Minimum Inhibitory Concentration (MIC)” value is listed as “(>200) μM”. The IC50 under setting [1] is 154 ± 2 µM. The “Minimum Inhibitory Concentration (MIC)” value (Strep. agalactiae 14151) was “(>200) μM”. Under setting [2], the IC50 is more than 200 µM. Besides, the “Minimum Inhibitory Concentration (MIC)” value (Strep. agalactiae 14153) is on record as “(>200) μM”. Further, under setting [3], the IC50 was more than 200 µM.

Take `COc1ccc(CCC(=O)c2c(O)cc(O)c(C/C=C/c3ccc(O)cc3)c2O)cc1` [Compound II]: the “activity” value is listed as “active”. In addition, the “Minimum Inhibitory Concentration (MIC)” value (Strep. agalactiae 14150) is given as “(>200) μM”. Further, under setting [1], the IC50 was 169 ± 3 µM. The “Minimum Inhibitory Concentration (MIC)” value (Strep. agalactiae 14151) is listed as “(>200) μM”. Also, the IC50 under setting [2] is more than 200 µM. In addition, where the note is “Strep. agalactiae 14153”, the “Minimum Inhibitory Concentration (MIC)” value is given as “(>200) μM”. Also, under setting [3], the IC50 is more than 200 µM.

Consider `COc1cc(O)c(C(=O)CCc2ccc(O)cc2)c(O)c1C/C=C/c1ccc(O)cc1` [Compound I], for which the “activity” value is on record as “active”. Further, the “Minimum Inhibitory Concentration (MIC)” value (Strep. agalactiae 14150) is on record as “(200) μM”. In addition, the IC50 under setting [1] is 144 ± 2 µM. Further, the “Minimum Inhibitory Concentration (MIC)” value (Strep. agalactiae 14151) is reported as “(>200) μM”. Moreover, the IC50 under setting [2] turned out to be 198 ± 3 µM. Further, the “Minimum Inhibitory Concentration (MIC)” value (Strep. agalactiae 14153) is reported as “(>200) μM”. Also, the IC50 under setting [3] worked out at 174 ± 3 µM.

For `CN[C@H](CC(C)C)C(=O)N[C@H]1C(=O)N[C@@H](CC(N)=O)C(=O)N[C@H]2C(=O)N[C@H]3C(=O)N[C@H](C(=O)N[C@H](C(=O)O)c4cc(O)cc(O)c4-c4cc3ccc4O)[C@H](O)c3ccc(c(Cl)c3)Oc3cc2cc(c3O[C@@H]2O[C@H](CO)[C@@H](O)[C@H](O)[C@H]2O[C@H]2C[C@](C)(N)[C@H](O)[C@H](C)O2)Oc2ccc(cc2Cl)[C@H]1O` [Vancomycin, vancomycin hydrochloride, reference compound], the IC50 (Streptococcus agalactiae, Strep. agalactiae 14150) was determined as 0.25 ± 0.06 µM; the IC50 (Streptococcus agalactiae, Strep. agalactiae 14151) was determined as 0.33 ± 0.06 µM; the IC50 (Streptococcus agalactiae, Strep. agalactiae 14153) amounted to 0.24 ± 0.04 µM. Moreover, the MIC (Streptococcus agalactiae, read-out: Minimum Inhibitory Concentration (MIC), Strep. agalactiae 14150) is 0.35 µM; the MIC (Streptococcus agalactiae, read-out: Minimum Inhibitory Concentration (MIC), Strep. agalactiae 14151) was 4.03 µM; the MIC (Streptococcus agalactiae, read-out: Minimum Inhibitory Concentration (MIC), Strep. agalactiae 14153) amounted to 0.36 µM.
